Values quoted from earlier work as cited in patent US7727979B2, “Guanidine derivatives and their use as neuropeptide FF receptor antagonists” (Actelion Pharmaceuticals Ltd., priority 2003, dated 2010).

Test system: human and rat-NPFF1 receptor

## NC(N)=NCCC[C@@H](NC(=O)C(c1ccccc1)c1ccccc1)C(=O)NCc1ccc(O)cc1 [BIBP3226]
  times higher affinity to NPFF1 receptor than to the corresponding NPFF2 receptors: 10-60 times
